US20040105860A1, “Cell modulation using a cytoskeletal protein” (priority 2002, published 2004)
Values belong to the molecule of their own block, whether it stands above or below them.

Assays:
cyclin A mRNA = test: Ribonuclease protection assay (RPA) of cyclin A mRNA expression in EC; type: cell-based, Bovine; details: pre-treatment of EC with Y27632
Method: FIGS. 1A-D are explained in more detail as follows. Synchronized ECs were serum stimulated in the presence or absence of TNF for indicated times. Total cellular RNA was isolated and was analyzed by RPA for cyclin A, cyclin B and cyclin D1 expression. A representative autoradiograph is shown (FIG. 1A). mRNA expression of cyclins was corrected to that of GAPDH and quantified by densitometric analysis (FIGS. 1B-D). Data represent average of 3 similar experiments.
FIGS. 12A-C are explained in more detail as follows. (FIG. 12A) Representative PCR gel photograph showing amplification of 200 bp cyclin A promoter emcompassing CHR elements from ant-ezrin antibody immunoprecipitated chromatin. (FIG. 12B) BAECs co-transfected with cyclin A promoter-reporter construct and either wt or dnEzrin constructs and cultured in presence or absence of TNF for 24 h before were analyzed for luciferase activity. Bar graph represents average promoter activity from 3 similar experiments (*p<0.01). (FIG. 12C) Total RNA from empty vector wt or dnEzrin transfected cells under control or TNF-treatment conditions was evaluated for cyclin A mRNA expression by ribonuclease protection assays. Representative autoradiograph is shown.
3. […]

RhoA kinase (ROCK-2) = RhoA kinase (ROCK-2) (Bos taurus, UniProt Q28021); test: Western blot for ROCK-2 in EC lysates; type: cell-based, Bovine; details: co-treatment with Y27632 20 micromolar at the time of TNF exposure
EC proliferation = test: Thymidine uptake assay, EC proliferation; type: cell-based, Bovine
Method: Having documented TNF-induced nuclear translocation and the ability of ezrin to bind to cyclin A CHR elements, the functional consequences of TNF-mediated ezrin modulation in EC was determined. To evaluate the effect of ezrin over-expression in the presence of TNF on cell proliferation, EC were transiently transfected with either wtEzrin or dnEzrin expression vectors. Cells were treated or not with TNF and BrdU (50 μg/mL) was added to all cultures for 6 hours. […] Tritiated thymidine uptake assays were performed as an independent measure of cell proliferation in similarly transfected and treated cells and corroborated the findings of BrdU incorporation (FIG. 11C).
FIGS. 11A-E are explained in more detail as follows. Quiescent BAECs transiently transfected with empty vector, wild type and dominant negative ezrin were cultured in the absence (control) or presence of 20 ng/mL TNF for 24 hrs. Cells were labeled with BrdU (50 μg/mL) for last 6 hrs of culture. […] BrdU positive cells were counted in at least 6 different visual fields. […]
To provide further evidence that the improvement in EC function attained by inhibition of ROCK-2 was mediated by ezrin, we performed rescue experiments. EC transiently transfected with wtEzrin and treated with TNF were co-treated with increasing doses of Y27632 and cell proliferation was determined by thymidine incorporation.

ezrin phosphorylation = test: Western blot for phospho-ezrin in EC lysates; type: cell-based, Bovine; details: Y27632 20 μM, all experimental time points
[1] = tested on: CDE-CHR elements of the cyclin A promoter; test: EMSA of EC nuclear extracts with CDE-CHR / CHR oligonucleotides; type: cell-based, Bovine
cyclin A CHR elements = test: South-western analysis and UV cross-linking of nuclear proteins with CDE-mCHR or mCDE-CHR probes; type: cell-based, Bovine; details: cycloheximide 5 μg/mL along with TNF
Excerpt: Nuclear proteins from asynchronously growing BAEC with or without TNF were probed with ^32P-labeled CDE-mCHR or mCDE-CHR oligonucleotides.
To confirm that 84 kDa protein in TNF treated extracts identified in FIGS. 8A-B, does bind to CHR elements, we performed UV cross-linking experiments. EMSA reactions were assembled as before followed by UV cross-linking. The reactions were then boiled in SDS loading buffer and resolved on 12% SDS-PAGE. In reactions probed with CDE-mCHR the 35-kDa protein seen before was observed again (FIGS. 8C-D). In reactions probed with mCDE-CHR probe, the previously identified (FIGS. 8A-B) 39-kDa protein was found cross-linked to oligonucleotide. Similarly, the 84-kDa protein from TNF treated extract cross-linked with mCDE-CHR probe, further confirming the southwestern results.
FIGS. 8A-E are explained in more detail as follows. FIGS. 8A-B. Representative autoradiograph of south-western analysis. Nuclear proteins from asynchronously growing EC with or with out TNF treatment were size fractionated on a 12% SDS-PAGE gel, transferred to PVDF membrane and renatured. Membranes were then incubated with radio-labeled CDE-mCHR or mCDE-CHR oligonucleotide. Membranes were washed, air dried and autoradiographed. […]

[2] = tested on: CHR oligonucleotides (cyclin A promoter); test: EMSA of recombinant protein with CHR oligonucleotides; type: binding; details: recombinant protein 1 μg
Excerpt: Nuclear extracts from control and TNF-treated EC were mixed with biotin-labeled CHR oligonucleotides and the bound proteins were captured on avidin-agarose beads. Eluted proteins from beads were subjected to Western blot analysis for ezrin. […] Specificity of CHR-ezrin binding was further confirmed by EMSA assays using recombinant-ezrin protein (GST-ezrin). […] We next evaluated the effect of TNF-induced ezrin binding to cyclin A-CHR by dominant-negative ezrin over-expression. EC were transiently transfected with wild-type (wtEzrin) and dominant negative (dnEzrin) ezrin expression vector. […] That TNF-induced modulation of ezrin up-regulates CHR-binding activity was further evident from ezrin immunodepletion experiments. Endogenous ezrin was immunodepleted from control and TNF-treated nuclear extracts by treating extracts with anti-ezrin antibodies over 5 rounds. Immunodepleted extracts were then analyzed by EMSA for CHR-binding activity.
FIGS. 9A-D are explained in more detail as follows. […] Eluted proteins from beads were analyzed for ezrin protein in western blots. […] (FIG. 9C) Nuclear extracts from control and TNF-treated BAECs, transfected with wild type or dominant negative ezrin, were evaluated CHR binding activity in EMSAs. […] Depleted extracts alone or depleted extracts from TNF treated cells reconstituted with GST-ezrin were then analyzed for CHR binding activity. […]

Chain of RhoA kinase (ROCK-2) (Q28021 whole entry): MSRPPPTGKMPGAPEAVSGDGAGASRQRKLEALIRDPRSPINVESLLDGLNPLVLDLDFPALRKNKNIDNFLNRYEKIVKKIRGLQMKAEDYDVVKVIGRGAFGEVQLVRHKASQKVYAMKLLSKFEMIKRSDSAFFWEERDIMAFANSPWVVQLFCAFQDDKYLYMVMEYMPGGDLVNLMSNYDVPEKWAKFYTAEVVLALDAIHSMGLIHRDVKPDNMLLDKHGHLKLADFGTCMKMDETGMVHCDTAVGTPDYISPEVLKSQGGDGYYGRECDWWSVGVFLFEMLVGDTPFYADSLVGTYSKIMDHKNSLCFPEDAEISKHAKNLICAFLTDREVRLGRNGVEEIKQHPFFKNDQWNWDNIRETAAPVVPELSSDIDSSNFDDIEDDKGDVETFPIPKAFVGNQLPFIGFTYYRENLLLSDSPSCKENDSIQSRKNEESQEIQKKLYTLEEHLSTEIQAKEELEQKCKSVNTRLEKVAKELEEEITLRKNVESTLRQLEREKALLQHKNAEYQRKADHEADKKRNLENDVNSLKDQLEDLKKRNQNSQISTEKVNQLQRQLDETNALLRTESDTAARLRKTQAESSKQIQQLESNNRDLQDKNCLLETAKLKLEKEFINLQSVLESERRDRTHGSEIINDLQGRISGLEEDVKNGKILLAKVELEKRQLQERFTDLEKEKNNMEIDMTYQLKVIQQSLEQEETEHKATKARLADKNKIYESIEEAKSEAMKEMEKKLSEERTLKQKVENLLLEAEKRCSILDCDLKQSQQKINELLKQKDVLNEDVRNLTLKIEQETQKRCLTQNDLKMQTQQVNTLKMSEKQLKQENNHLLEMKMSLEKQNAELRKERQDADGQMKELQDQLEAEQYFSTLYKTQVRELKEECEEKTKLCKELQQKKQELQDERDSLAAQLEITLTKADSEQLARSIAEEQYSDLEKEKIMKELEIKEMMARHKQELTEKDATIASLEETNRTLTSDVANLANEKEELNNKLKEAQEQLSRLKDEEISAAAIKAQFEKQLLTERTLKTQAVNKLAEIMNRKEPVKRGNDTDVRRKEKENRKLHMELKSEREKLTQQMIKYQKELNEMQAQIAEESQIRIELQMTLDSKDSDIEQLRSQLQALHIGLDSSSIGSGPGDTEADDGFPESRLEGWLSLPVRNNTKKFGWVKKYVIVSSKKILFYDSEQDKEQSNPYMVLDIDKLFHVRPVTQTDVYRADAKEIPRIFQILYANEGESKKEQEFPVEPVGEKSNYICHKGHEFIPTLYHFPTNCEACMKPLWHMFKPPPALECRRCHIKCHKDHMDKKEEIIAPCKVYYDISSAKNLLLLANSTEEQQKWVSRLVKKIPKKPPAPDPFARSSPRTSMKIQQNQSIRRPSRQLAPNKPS

ROCK-2 induction by TNF (RhoA kinase (ROCK-2)): completely abolished | TNF-induced CHR binding activity ([1]; nuclear extracts from EC co-treated with TNF and Y27632): significantly reduced
Molecule: C[C@@H](N)[C@H]1CC[C@H](C(=O)Nc2ccncc2)CC1 [Y27632]
TNF-mediated inhibition of cyclin A mRNA expression (cyclin A mRNA): reversed | ezrin/TNF mediated inhibition of EC proliferation (EC proliferation; EC transfected with wtEzrin, treated with TNF, increasing doses of Y27632): dose dependently reversed | inhibitory effect of TNF on EC proliferation (EC proliferation; treatment of EC with Y27632 in the presence of TNF): partially abrogated | TNF-induced ezrin phosphorylation (ezrin phosphorylation): completely inhibited

Molecule: C[C@@H]1C[C@@H]([C@H](O)CC2CC(=O)NC(=O)C2)C(=O)[C@@H](C)C1 [cycloheximide]
induction of 84-kDa protein by TNF (cyclin A CHR elements): failed to induce the protein

CHR-binding activity of ezrin-immunodepleted TNF-extract ([1]; recombinant ezrin added back to the depleted TNF-extract): significantly increased
Molecule: Recombinant ezrin: Recombinant human ezrin protein (GST-ezrin)
complex formation with CHR oligonucleotides [2]: formed complex

B1: recombinant-DP1 protein: control recombinant-DP1 protein used in EMSA (protein, UniProt Q14186 1-410, looked up)
Transcription factor Dp-1: MAKDAGLIEANGELKVFIDQNLSPGKGVVSLVAVHPSTVNPLGKQLLPKTFGQSNVNIAQQVVIGTPQRPAASNTLVVGSPHTPSTHFASQNQPSDSSPWSAGKRNRKGEKNGKGLRHFSMKVCEKVQRKGTTSYNEVADELVAEFSAADNHILPNESAYDQKNIRRRVYDALNVLMAMNIISKEKKEIKWIGLPTNSAQECQNLEVERQRRLERIKQKQSQLQELILQQIAFKNLVQRNRHAEQQASRPPPPNSVIHLPFIIVNTSKKTVIDCSISNDKFEYLFNFDNTFEIHDDIEVLKRMGMACGLESGSCSAEDLKMARSLVPKALEPYVTEMAQGTVGGVFITTAGSTSNGTRFSASDLTNGADGMLATSSNGSQYSGSRVETPVSYVGEDDEEDDDFNENDEDD
complex formation with CHR oligonucleotides [2]: did not form the complex
